Reference: patent US20060051787A1, “Quantitative PCR for analysis of DNA damage induced by PGHS-2 (COX-2) or other factors” (priority 2004, published 2006)
Several values for one entry are separate records, joined by “and”; a condition that tells them apart may be missing. Equal values may be shown once. Read-outs that look alike come from different tables or passages of the source.

Tests used:
[1] = test system: 16.2 kb mitochondrial DNA; experiment: QPCR DNA damage analysis in XPA cells #12; assay type: cell-based, human; details: 0.5 mM t-BOOH; 3 hours; 26 cycles; FIG. 5
Procedure: Panel A, ethidium bromide staining of biotinylated mitochondrial DNA fragments (16.2 kb), Panel B, visualization of the biotinylated mitochondrial DNA fragments by chemiluminescent assay (ECL) system, Panel C, a negative control, ethidium bromide staining of biotinylated β-globin (0.55 kb) DNA fragments and Panel D, visualization of the biotinylated β-globin DNA fragments by an ECL system.
Lane 1, bp standards, lanes 2 and 3, cells treated with 1 mM t-BOOH+solvent for BPD (tetrahydrofuran), lanes 4 and 5, cells treated with 1 mM t-BOOH+5 μM BPD, lanes 6 and 7, cells treated with solvent for AA (ethanol), lanes 8 and 9, cells treated with 100 μM AA and lanes 10 and 11, cells treated with 100 μM AA+5 μM BPD. Cells were treated for 3 hours at 37° C., DNA was isolated and QPCRs were carried out using biotinylated nucleotide primers. […]
DNA damage repair deficient XPA cells #12 (PGHS-2+) were grown and cells were treated for three hours at 37° C. with 0.5 mM or 1 mM t-BOOH with or without 5 μM to 15 μM BPD. […] DNA fragments were transferred to a nitrocellulose membrane and visualized by a streptavidin-horseradish peroxidase/chemiluminescent (ECL) system followed by quantitation with a densitometer. Visualization of the DNA fragments by the ECL system amplified intensity of each DNA band and made it possible to quantitate each DNA band using a densitometer. […]

8.8 kb mitochondrial DNA = experiment: QPCR (14 cycles) followed by real-time PCR DNA damage analysis in XPA cells; assay type: cell-based, human
From the text: QPCR products of 2.3 kb and 8.8 kb mitochondrial DNA were quantitated by real-time PCR with primers to produce a 112 bp fragment using the ABI PRISM® 7700 (Applied Biosystems). DNA replication was monitored by addition of a double-stranded DNA binding dye, SYBR® Green I (Applied Biosystems).
Real-time PCR primers selected from the […].
Concentrations of 8.8 kb PCR products were obtained after treatment of PGHS-2-expressing DNA damage repair deficient cells with t-BOOH (PGHS-2 substrate) and BPD (a premutagen) using a standard curve. The standard curve was obtained by real-time PCR with various concentrations of the 8.8 kb DNA.
QPCR of a 16.2 kb, 8.8 kb and 2.3 kb mitochondrial DNA and 2.3 kb p53 and 0.5 kb β-globin nuclear DNA were carried out using biotinylated nucleotide primers. The reaction mixture contained 15 ng of template DNA, 1.2 mM MgSO4, 0.2 mM deoxynucleotide triphosphates, 0.2 μM biotinylated primers, and 1 unit of Platinum Pfx DNA polymerase (Life Technologies). Alternatively, the QPCR was carried out with the GeneAmp XL PCR kit (PerkinElmer/Roche) which contains rTth DNA polymerase XL and XL PCR buffer as previously described (9).
The PCR was initiated with a 90° C. hot-start addition of the polymerase. Initial denaturation was carried out for 1 min at 94° C. followed by cycles of denaturation at 94° C. for 15 sec, primer extension and annealing at 66° C. for 12 min and final extension at 72° C. for 10 minutes. The DNA product was separated by electrophoresis on 1% agarose gel and visualized by ethidium bromide staining.
Best fitting real-time PCR primers were selected using Primer Express program (Applied Biosystems). The PCR primers selected for a real-time PCR were used to replicate 112 bp of PCR for both 8.8 kb and 2.3 kb mitochondrial DNA. The primer binding sites are located in the middle 2.1 kb section (the missing part in 6.7 kb internal control) of 8.8 kb fragment. […] The real-time PCR primers for 112 bp product (Tm, 79° C.) are […] […]
Standard curve for real-time PCR analysis was obtained with the 8.8 kb standards ranging from 0.012 to 1200 pg. Concentrations of the 8.8 kb DNA preparation were spectrophotometrically measured. […] Using the standard curve to obtain relationship of log concentrations of various standards and Ct, QPCR product levels of the samples were calculated.
Real-time PCR analysis was carried out and specificity of the real-time PCR of the 8.8 kb fragment was analyzed by (a) agarose gel electrophoresis of 40 cycle replicated 112 bp real-time PCR product and (b) melting curve of the 112 bp product. […]
Single 112 bp real-time PCR product was detected in each sample and a sharp melting curve at 79° C., which agreeded with the theoretical Tm, was obtained. […]

[2] = test system: XPA Cells #12 (PGHS+/neo+); experiment: Cytotoxicity: colony-forming ability of PGHS-2 expressing XPA cells; assay type: cell-based, human; details: for Colony Number (% of Control): treated two hours, incubated 10 days
Procedure: (§1) XPA cells #12 (PGHS^+/neo^+) and #32 (PGHS^−/neo^+) were selected for cytotoxicity and mutagenicity assays. Cytotoxicity assays were carried out by assaying the loss of colony-forming ability as previously described (1).
(§2) Cells were treated as follows: (a) no treatment, (b) 100 μM arachidonic acid (AA), (c) 200 μM AA, (d) 5 μM benzo(a)pyrene-7,8-dihydrodiol (BPD), (e) 5 μM BPD+100 μM AA, (f) 5 μM BPD+200 μM AA, (g) 100 μM butylated hydroxyanisole (BHA), (h) 100 μM BHA+5 μM BPD+100 AA and (i) 100 μM BHA+5 μM BPD+200 μM AA. BPD was dissolved in tetrahydrofuran.
(§3) Cytotoxicity of environmental toxicants to PGHS-2^+/neo^+ (PGHS-2-dependent) XPA and wild type cells were assayed by measuring colony-forming ability. Mutagenicity of the chemical was assayed by measuring induction of 6-thioguanine resistance of the cells, which was a result of mutation of the cells to the HPRT-phenotype.
(§4) Cytotoxicity assays were carried out by assaying the loss of colony-forming ability. Briefly, after harvesting, cells were plated at a cloning density of 600 cells/well in six-well plates and incubated for 7-12 days. The colonies were washed with PBS, fixed with methanol, stained with 0.04% methylene blue, and counted.

[3] = test system: XPA Cells #32 (PGHS-/neo+); experiment: Cytotoxicity: colony-forming ability of negative control XPA cells; assay type: cell-based, human; details: treated two hours, incubated 10 days
Procedure: as §1, §2, §3, §4

[4] = test system: 17.7 kb fragment of the nuclear beta-globin gene; details: cited from earlier work
[5] = test system: 16.2 kb mitochondrial fragment; details: cited from earlier work
[6] = test system: XPA human skin fibroblast cell line which expressed cytochrome P450 1A1; details: by an endogenously formed metabolite of BPD; cited from earlier work
[7] = 200 μM for 15 minutes, in 1.5 hours
[8] = 200 μM for 60 minutes, in 3.5 hours

CC(C)(C)OO [t-BOOH, tert-butyl hydroperoxide]
16.2 kb PCR product level [1]: −50 % of control | % mean value of control, 112.47 pg (8.8 kb mitochondrial DNA; 0.5 mM t-BOOH, samples 1 and 2): 70.6 ± 2.0% and 46.7 ± 1.9% | pg DNA after 14 cycles of first PCR (8.8 kb mitochondrial DNA; 0.5 mM t-BOOH, samples 1 and 2): 79.40 ± 2.24 pg and 52.48 ± 2.19 pg

CCCCC/C=C\C/C=C\C/C=C\C/C=C\CCCC(=O)O [AA, arachidonic acid]
colony number (text summary of Table 1) [2]: dramatically increased colony number | Colony Number (% of Control) ([2]; 100 μM AA): 133.3 ± 12.6 % of Control | Colony Number (% of Control) ([2]; 200 μM AA): 140.5 ± 8.3 % of Control | Colony Number (% of Control) ([3]; 100 μM AA): 70.1 ± 0.6 % of Control | Colony Number (% of Control) ([3]; 200 μM AA): 72.0 ± 6.2 % of Control

COc1ccc(O)c(C(C)(C)C)c1 [BHA, butylated hydroxyanisole]
Colony Number (% of Control) ([2]; 100 μM BHA): 211.9 ± 4.8 % of Control | colony number (text summary of Table 1) ([2]; treatment for two hours): dramatically increased colony number | Colony Number (% of Control) ([3]; 100 μM BHA): 96.0 ± 3.8 % of Control

OO [hydrogen peroxide]
repair of DNA damage [4, 7]: completely repaired | repair of DNA damage [4, 8]: complete DNA repair | repair of DNA damage [5, 7]: completely repaired | repair of DNA damage [5, 8]: no repair | level of PCR products of the mitochondrial fragment relative to that of the nuclear beta-globin gene ([5]; 200 and 400 μM for an hour): 20%-30%

O[C@H]1C=Cc2c(cc3ccc4cccc5ccc2c3c45)[C@@H]1O (relative stereo) [BPD, benzo(a)pyrene-trans-7,8-dihydrodiol]
Colony Number (% of Control) ([2]; 5 μM BPD): 214.3 ± 7.1 % of Control | colony number (text summary of Table 1) ([2]; treatment for two hours): dramatically increased colony number | Colony Number (% of Control) ([3]; 5 μM BPD): 88.0 ± 3.3 % of Control | % mean value of control, 112.47 pg (8.8 kb mitochondrial DNA; 5 mM BPD, samples 1 and 2): 93.1 ± 2.7% and 111.9 ± 2.3% | pg DNA after 14 cycles of first PCR (8.8 kb mitochondrial DNA; 5 mM BPD, samples 1 and 2 = separate cell culture experiments): 104.71 ± 3.02 pg and 125.89 ± 2.59 pg | mutation frequencies versus wild type cell line [6]: approximately three-fold higher mutation frequencies
